Among the data in ChEMBL document CHEMBL2401709 (J Med Chem, 2013) are IC50 values, retold here.

The structures appear in SMILES notation.

One experiment concerns HOS. Put plainly: Cytotoxicity against human HOS cells assessed as growth inhibition after 72 hrs by calcein AM staining-based fluoroscence assay. In kind it is functional, cell-based.
Another experiment has as its system G-361. Put plainly: Cytotoxicity against human G361 cells assessed as growth inhibition after 72 hrs by calcein AM staining-based fluoroscence assay. Type of experiment: functional, cell-based. As to conditions: G-361, 72 h.
In the next experiment the test system is K562. The experiment in a line: Cytotoxicity against human K562 cells assessed as growth inhibition after 72 hrs by calcein AM staining-based fluoroscence assay. Type of experiment: functional, cell-based. As to conditions: K562, 72 h.
Experiment [1] addresses Cyclin-dependent kinase 2/cyclin E1 (Homo sapiens, UniProt P24941). The experiment in a line: Inhibition of human recombinant CDK2/Cyclin E expressed in baculovirus infected sf9 cells using histone H1 as substrate.
A further experiment deals with HeLa. The experiment in a line: Cytotoxicity against human HeLa cells assessed as growth inhibition after 72 hrs by calcein AM staining-based fluoroscence assay. Type of experiment: functional, cell-based.
In another experiment the test system is HCT-116. Put plainly: Cytotoxicity against human HCT116 cells assessed as growth inhibition after 72 hrs by calcein AM staining-based fluoroscence assay. In kind it is functional, cell-based. As to conditions: HCT-116, 72 h.
In a further experiment the test system is MCF7. Put plainly: Cytotoxicity against human MCF7 cells assessed as growth inhibition after 72 hrs by calcein AM staining-based fluoroscence assay. As to conditions: MCF7, 72 h. In kind it is functional, cell-based.

Take `COc1ccccc1-c1ccc(CNc2nc(NC3CCC(N)CC3)nc3c2ncn3C2CCCC2)cn1` (stereo not drawn): the IC50 with HOS was 122 nM; with G-361 it was 140 nM; in the experiment with K562, 66 nM; in experiment [1], 34 nM; in the experiment with HeLa, 39 nM; in the experiment on HCT-116 it was 177 nM. Also, the half-inhibitory concentration (IC50) in the experiment with MCF7 is 82 nM.

Turning to `Nc1ccccc1-c1ccc(CNc2nc(NC3CCC(N)CC3)nc3c2ncn3C2CCCC2)cn1` (stereo not drawn), the IC50 in the experiment on HOS is 398 nM; in the experiment with G-361, 730 nM; in the experiment with K562, 200 nM; in experiment [1] it was 10 nM; in the experiment on HeLa it was 535 nM; with HCT-116, 635 nM. Also, the IC50 in the experiment with MCF7 was 117 nM.

Turning to `NC1CCC(Nc2nc(NCc3ccc(-c4ccccc4)cc3)c3ncn(C4CCCC4)c3n2)CC1` (stereo not drawn), the IC50 in experiment [1] turned out to be 26 nM.

Consider `CC[C@H](CO)Nc1nc(NCc2ccccc2)c2ncn(C(C)C)c2n1` [SELICICLIB], for which the IC50 is 28600 nM in the experiment with HeLa and 12300 nM in the experiment with MCF7.

Consider `NC1CCC(Nc2nc(NCc3ccc(-c4cccc(F)c4)cc3)c3ncn(C4CCCC4)c3n2)CC1` (stereo not drawn), for which the IC50 was 211 nM in the experiment with HOS; 815 nM in the experiment on G-361; 290 nM with K562; 33.5 nM in experiment [1]; 445 nM with HeLa; 551 nM in the experiment with HCT-116. Also, the IC50 with MCF7 is 293 nM.

As for `NC1CCC(Nc2nc(NCc3ccc(-c4ccco4)cc3)c3ncn(C4CCCC4)c3n2)CC1` (stereo not drawn), the IC50 in the experiment on HOS is 102 nM; in the experiment with G-361 it was 164 nM; with K562, 96 nM; in experiment [1] it was 11.4 nM; with HeLa, 71 nM; in the experiment with HCT-116 it was 129 nM. Moreover, the IC50 in the experiment with MCF7 was 85 nM.

As for `NC1CCC(Nc2nc(NCc3ccc(-c4cccs4)cc3)c3ncn(C4CCCC4)c3n2)CC1` (stereo not drawn), the IC50 was 247 nM with HOS; 655 nM in the experiment with G-361; 307 nM in the experiment with K562; 20 nM in experiment [1]; 358 nM in the experiment on HeLa; 592 nM with HCT-116. For the same compound, the concentration for half-maximal inhibition (IC50) with MCF7 was 290 nM.

`NC1CCC(Nc2nc(NCc3ccc(-c4ccoc4)cc3)c3ncn(C4CCCC4)c3n2)CC1` (stereo not drawn): the half-maximal inhibitory concentration (IC50) is 140 nM with HOS; 670 nM in the experiment on G-361; 287 nM in the experiment with K562; 13 nM in experiment [1]; 140 nM with HeLa; 1040 nM in the experiment on HCT-116. Moreover, the IC50 with MCF7 is 247 nM.

In the case of `OC1CCC(Nc2nc(NCc3ccc(-c4ccco4)nc3)c3ncn(C4CCCC4)c3n2)CC1` (stereo not drawn), the IC50 was 180 nM in the experiment with HOS; 443 nM with G-361; 303 nM with K562; 23 nM in experiment [1]; 247 nM in the experiment on HeLa; 617 nM in the experiment with HCT-116. Besides, the half-maximal inhibitory concentration (IC50) in the experiment with MCF7 was 390 nM.

Consider `COc1ccccc1-c1ccc(CNc2nc(NC3CCC(N)CC3)nc3c2ncn3C2CCCC2)cc1` (stereo not drawn), for which the IC50 with HOS is 150 nM; in the experiment on G-361 it was 545 nM; in the experiment on K562, 347 nM; in experiment [1], 33 nM; with HeLa, 333 nM; in the experiment on HCT-116, 430 nM. The IC50 in the experiment with MCF7 was 303 nM.

Consider `NC1CCC(Nc2nc(NCc3ccc(-c4ccsc4)cc3)c3ncn(C4CCCC4)c3n2)CC1` (stereo not drawn), for which the IC50 in the experiment on HOS is 120 nM; in the experiment on G-361, 570 nM; in the experiment on K562 it was 150 nM; in experiment [1] it was 14 nM; in the experiment on HeLa it was 220 nM; in the experiment on HCT-116, 315 nM. Moreover, in the experiment with MCF7, the IC50 was 145 nM.

`NC1CCC(Nc2nc(NCc3ccc(Br)nc3)c3ncn(C4CCCC4)c3n2)CC1` (stereo not drawn): the IC50 in the experiment on HOS was 935 nM; in the experiment with G-361 it was 640 nM; with K562 it was 1180 nM; with HeLa, 633 nM; in the experiment on HCT-116 it was 577 nM; in the experiment with MCF7, 483 nM.

As for `NC1CCC(Nc2nc(NCc3ccc(Br)cc3)c3ncn(C4CCCC4)c3n2)CC1` (stereo not drawn), the IC50 is 995 nM in the experiment with HOS; 1480 nM in the experiment with G-361; 1170 nM in the experiment on K562; 1510 nM in the experiment with HeLa; 790 nM with HCT-116; 850 nM in the experiment with MCF7.
